For the data set, the system named is patients with chemotherapy-induced thrombocytopenia (platelet count <75×10^9/L, chemotherapy delay ≥1 week). As to the kind of experiment: Randomized placebo-controlled clinical study of herombopag olamine tablets in thrombocytopenia induced by chemotherapy for malignant tumors (Example 1). Type of data set: in vivo, human. On the procedure: Investigational drug: herombopag olamine tablets, 2.5 mg/tablet, manufactured and provided by Jiangsu Hengrui Pharmaceuticals Co., Ltd.
Control drug: herombopag olamine simulated tablets (placebo), 2.5 mg/tablet, identical in shape, color, weight, etc. to the herombopag olamine tablets, manufactured and provided by Jiangsu Hengrui Pharmaceuticals Co., Ltd.
Patients must meet all of the following inclusion criteria to be eligible for the study: • 1. Age between 18 years and 75 years (inclusive), regardless of gender. • 2. Pathologically or cytologically confirmed diagnosis of malignant tumors, including lung cancer (small cell or non-small cell), breast cancer, bladder cancer, etc. • 3. The subject is currently receiving a chemotherapy regimen on a 21-day cycle (excluding other chemotherapy cycle lengths) and requires the use of one or more chemotherapeutic drugs, such as: • Antimetabolites, including gemcitabine, etc.; • Platinum-based agents, including carboplatin, nedaplatin, cisplatin, lobaplatin, etc.; • Anthracyclines, including doxorubicin, daunorubicin, epirubicin, etc.; • Alkylating agents, including cyclophosphamide, ifosfamide, etc. • 4. The subject experiences a delay of ≥1 week in chemotherapy relative to the expected time due to thrombocytopenia, and the platelet count remains <75×10^9/L. • 5. Physical fitness status ECOG score of 0-1. • 6. The subject has an expected survival period of ≥12 weeks at the time of screening and is able to receive at least 2 or more cycles of the current chemotherapy regimen. • 7. Subjects of childbearing potential must agree to use reliable methods of contraception throughout the study (including male or female condoms, contraceptive foams, contraceptive gels, contraceptive films, contraceptive creams, contraceptive suppositories, abstinence, placement of intrauterine devices, etc.). Female subjects who have undergone a hysterectomy, bilateral salpingectomy, or bilateral tubal ligation or have been postmenopausal for more than 1 year and male subjects who have undergone a bilateral vasectomy or ligation are excluded. • 8. The subject is willing to participate in the study, can provide written informed consent, and has good compliance.
Patients meeting any one of the following criteria are excluded from the study: • 1. Screening or baseline platelet count of <30×10^9/L. • 2. Platelet count of <75×10^9/L prior to the first dose of chemotherapy. • 3. Hematopoietic diseases other than chemotherapy-induced thrombocytopenia (CIT), including but not limited to leukemia, primary immune thrombocytopenia, myeloproliferative diseases, multiple myeloma, and myelodysplastic syndrome. • 4. […]

On to `CC1=NN(c2ccc3c(c2)CCCC3)C(=O)/C1=N\Nc1cccc(-c2ccc(C(=O)O)o2)c1O` [herombopag olamine tablets, herombopag], for which, where the note is “95% CI 2.82-38.65, p=0.0001”, the “OR value for achieving the primary study endpoint, investigational group vs placebo group” value worked out at 10.44. Also, the “proportion of subjects in which the drug is therapeutically effective (patients achieving the primary study endpoint)” value (investigational group n=28 (17/28), starting dose 7.5 mg once daily oral, two consecutive 21-day chemotherapy cycles, 95% CI 40.6-78.5, placebo 4/31 (12.9%)) is 60.7%. Further, for the setting “investigational group vs placebo group”, the “incidence of adverse events” value is “comparable between the investigational group and the placebo group”. The “grade 3 or higher grade treatment-related adverse events or treatment-related serious adverse events” value (investigational group, starting dose 7.5 mg once daily) is listed as “No grade 3 or higher grade treatment-related adverse events or treatment-related serious adverse events were observed”.

For the origin of these results see patent US20260137653A1, “USE OF HEROMBOPAG OR PHARMACEUTICALLY ACCEPTABLE SALT THEREOF IN TREATMENT OF TUMOR CHEMOTHERAPY-INDUCED THROMBOCYTOPENIA” (JIANGSU HENGRUI PHARMACEUTICALS CO., LTD., priority 2022, published 2026).
